Measured values published in patent US6716582B2 (priority 2000, dated 2004).

Legend:
[1] = test system: uhpT-luxCDABE gene fusion (strain DPD3228); assay: verification of uhpT-lux upregulation by limonene; assay type: cell-based, E. coli; details: late response, maximal at highest concentration, detected at 40% or 20% of saturation
Protocol: E. coli strain DPD3228 is identical to lux-a.pk034.b9 the strain containing the uhpT-luxCDABE gene fusion. This strain was grown overnight at 37° C. in LB medium containing 100 μg/ml ampicillin and diluted the following day into LB medium and grown to log phase at 37° C. 20 μl aliquots of this culture were added to 80 μl of LB medium saturated with limonene, to 80 μl of a series of two fold dilutions into LB medium of LB saturated with limonene, and to 80 μl of LB medium. Light production was measured in a Luminoskan Ascent (Labsystems) microplate luminometer at 37° C. […] Similar to the initial LuxArray observations, a late response to the presence of limonene was observed. This response was maximal at the highest concentration of limonene tested, but was also detected when limonene was present at 40% or 20% of saturating amounts in LB medium.

[2] = test system: LuxArray 1.04 luxCDABE gene fusions; assay: LuxArray 1.04 limonene stress in liquid culture; assay type: cell-based, E. coli; details: for upregulation of gene fusion: 80% saturated limonene
Protocol: Microplates from −80° C. containing the LuxArray 1.04 E. coli strains were thawed and used to inoculate 100 μl LB medium supplemented with 100 μg/ml ampicillin in Costar#3595 flat bottomed 96-well microplates. Following overnight growth at 37° C., the plates were visually examined and any wells with little or no turbidity were recorded. Then these cultures were diluted by transfer of 15 μl to 135 μl LB medium in Costar #3595, flat bottom 96-well microplates and were moderately swirl shaken on an IKA Schuttler MTS 4 shaker at setting 400 for two hrs at 37° C. in a humidified box. Twenty μl of each these actively growing cultures were transferred to the corresponding well in sets of three microplates, one containing 80 μl of LB medium, another containing 80 μl of LB medium saturated with limonene at room temperature, and the third containing 40 μl of LB medium saturated with limonene and 40 μl of LB medium. An initial (zero time) reading was taken using an MLX microplate luminometer (Dynex) pre-warmed to 37° C. Then the plates were placed at 37° C. without shaking. Additional bioluminescent measurements were taken at 45, 90, and 135 minutes. To limit the number of microplates handled each day, LuxArray 1.04 microplates 1 to 5, microplates 6 to 10, microplates 11 to 15, and microplates […] were used on each of four different days.
The data were normalized to correct for growth inhibition caused by limonene on the basis of each individual day that data was collected. The bioluminescence (RLU) of each individual culture for each day of experimentation under each of the three conditions, were added to determine the daily array total RLU. These were used to find a daily normalization factor (DNF) as follows:
DNF=Daily total array signal (time zero, LB control)/Daily total array signal (time x, condition y)
Each measurement from the corresponding day, time point, and condition was multiplied by DNF to yield a normalized signal. The data from wells that were scored to have little or no growth were not used in further analysis. The normalized data were analyzed with GeneSpring (Silicon Genetics) software, which averaged the signal from each of the duplicate cultures for each reporter gene fusion.
Thus, patterns of gene expression from the 80% saturated limonene in LB medium were further examined. […] These lists were examined and gene fusions with very low normalized RLU values (<0.012 RLU) at all conditions were eliminated. […] The designation of “>2×” is given for upregulation while “*” is listed if the expression was less than 2 fold increased. At 45 minutes, the expression of fourteen gene fusions was increased; none of these was increased 3 fold or higher. At 90 minutes, 37 gene fusions were induced; these included all but one of the gene fusions observed at 45 minutes. […] These were fusions of the luxCDABE reporter to the promoter regions of uhpT (3.8×), nirB (3.7×) and narK (3.6×). At 135 minutes, 39 gene fusions were induced, which included 13 fusions not observed at 45 or 90 minutes.

With `C=C(C)[C@H]1CC=C(C)CC1` [limonene] the upregulation of bioluminescence [1] was “upregulation of bioluminescence from this strain by limonene was confirmed”, the “upregulation of gene fusion” value ([2]; katG-lux, 135 minutes) was 4.1 × and the “upregulation of gene fusion” value ([2]; narK-lux, 90 minutes) was 3.6 ×. The “upregulation of gene fusion” value ([2]; nirB-lux, 90 minutes) was 3.7 ×, the “upregulation of gene fusion” value ([2]; nirB-lux, 135 minutes) was 4.1 × and the “upregulation of gene fusion” value ([2]; uhpT-lux, 90 minutes) was 3.8 ×. The “upregulation of gene fusion” value ([2]; uhpT-lux, 135 minutes) was 7.7 × and the “upregulation of gene expression” value ([2]; whole LuxArray 1.04, 40% saturated limonene in LB medium) was “little to no upregulation”.
